pIC50: −log10 of the molar value.
What was measured:
HDAC1 = HDAC1 (Homo sapiens, UniProt Q13547); assay: Test of HDAC activities, HDAC1 Fluorimetric Drug Discovery Assay Kit; format: biochemical; set-up: purchased Enzolifesciences BML-AK511; details: samples at 100, 1000, 10000 nM; 37° C. 60 minutes; fluorescence Ex 390, Em 460; read-out: HDAC inhibitory activities, HDAC1
Outline: (§1)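 HDAC1 tested at 100, 1000 and 10000 nM; recombinant human HDAC6 at 0.1, 1, 10, 100 and 1000 nM. Reaction 60 min at 37° C, then developer for 30 min at 37° C; fluorescence read at Ex 390/Em 460.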

HDAC 6 = molecular target: T1, HDAC 6 (Homo sapiens, UniProt Q9UBN7); assay: Test of HDAC activities, HDAC6 (fluorimetric); format: biochemical; set-up: purchased Calbiochem 382180; details: samples at 0.1, 1, 10, 100, 1000 nM; 37° C. 60 minutes; fluorescence Ex 390, Em 460; read-out: HDAC inhibitory activities, HDAC6
T1 sequence (Q9UBN7 1-1215): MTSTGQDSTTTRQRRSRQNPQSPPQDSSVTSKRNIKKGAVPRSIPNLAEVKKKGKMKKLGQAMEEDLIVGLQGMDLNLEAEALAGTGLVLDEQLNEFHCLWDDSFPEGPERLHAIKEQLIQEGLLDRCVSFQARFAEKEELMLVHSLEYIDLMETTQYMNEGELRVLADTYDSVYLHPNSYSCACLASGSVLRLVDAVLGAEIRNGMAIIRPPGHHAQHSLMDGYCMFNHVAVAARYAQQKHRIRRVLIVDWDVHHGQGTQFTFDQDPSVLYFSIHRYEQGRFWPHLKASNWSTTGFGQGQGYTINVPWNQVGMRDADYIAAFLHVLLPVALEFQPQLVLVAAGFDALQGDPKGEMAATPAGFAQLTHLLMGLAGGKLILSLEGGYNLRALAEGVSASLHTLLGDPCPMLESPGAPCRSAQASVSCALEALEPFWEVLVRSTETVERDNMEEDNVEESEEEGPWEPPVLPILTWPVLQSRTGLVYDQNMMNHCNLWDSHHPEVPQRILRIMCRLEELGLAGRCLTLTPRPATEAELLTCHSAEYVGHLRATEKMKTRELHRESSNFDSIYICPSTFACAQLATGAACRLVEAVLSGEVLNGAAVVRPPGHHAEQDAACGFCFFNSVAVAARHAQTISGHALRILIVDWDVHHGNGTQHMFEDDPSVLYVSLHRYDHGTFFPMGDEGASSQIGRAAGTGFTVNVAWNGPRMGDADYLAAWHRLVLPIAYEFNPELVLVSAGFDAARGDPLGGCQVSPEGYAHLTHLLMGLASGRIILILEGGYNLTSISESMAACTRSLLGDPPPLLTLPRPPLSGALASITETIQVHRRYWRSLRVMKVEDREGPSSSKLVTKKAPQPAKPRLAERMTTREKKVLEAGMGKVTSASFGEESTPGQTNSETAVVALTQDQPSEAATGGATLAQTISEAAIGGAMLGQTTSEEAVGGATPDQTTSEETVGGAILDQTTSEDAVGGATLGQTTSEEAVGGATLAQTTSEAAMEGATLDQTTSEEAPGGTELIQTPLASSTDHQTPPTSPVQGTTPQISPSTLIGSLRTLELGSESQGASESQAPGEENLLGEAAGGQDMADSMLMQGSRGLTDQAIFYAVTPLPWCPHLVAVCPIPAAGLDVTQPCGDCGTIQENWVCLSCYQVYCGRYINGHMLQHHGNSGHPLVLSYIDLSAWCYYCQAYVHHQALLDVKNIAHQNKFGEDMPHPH
Outline: as §1

Sequence of HDAC1 (Q13547 whole entry): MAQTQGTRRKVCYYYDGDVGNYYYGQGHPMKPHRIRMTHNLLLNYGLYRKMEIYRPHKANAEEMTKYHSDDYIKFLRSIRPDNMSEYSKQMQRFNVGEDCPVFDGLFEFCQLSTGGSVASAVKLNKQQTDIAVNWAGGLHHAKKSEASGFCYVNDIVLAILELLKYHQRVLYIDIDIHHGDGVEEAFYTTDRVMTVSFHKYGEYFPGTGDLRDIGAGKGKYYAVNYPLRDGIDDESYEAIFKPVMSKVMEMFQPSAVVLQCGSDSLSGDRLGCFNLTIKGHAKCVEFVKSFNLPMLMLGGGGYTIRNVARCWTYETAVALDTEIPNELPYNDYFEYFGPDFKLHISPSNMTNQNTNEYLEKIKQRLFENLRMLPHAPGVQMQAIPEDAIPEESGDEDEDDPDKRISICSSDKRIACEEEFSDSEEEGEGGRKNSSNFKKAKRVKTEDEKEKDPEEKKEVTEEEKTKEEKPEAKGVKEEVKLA

pIC50 (HDAC1) | pIC50 (HDAC 6) | SMILES
4.64 | 7.89 | O=C(NO)c1ccc(CN(C(=O)N2CCC(O)(c3ccccc3)CC2)c2ncccn2)cc1 [Compound 311, 4-hydroxy-N-(4-(hydroxycarbamoyl)benzyl)-4-phenyl-N-(pyrimidin-2-yl)piperidine-1-carboxamide]
6.67 | 9.00 | O=C(NO)c1ccc(CN(C(=O)N2CCOCC2)c2ccc(Br)cc2)cc1 [Compound 372, N-(4-bromophenyl)-N-(4-(hydroxycarbamoyl)benzyl)morpholine-4-carboxamide]
5.84 | 7.85 | O=C(NO)c1ccc(CN(C(=O)N2CCOCC2)c2cccc(C3=CCOCC3)c2)c(F)c1 [Compound 512, N-(3-(3,6-dihydro-2H-pyran-4-yl)phenyl)-N-(2-fluoro-4-(hydroxycarbamoyl)benzyl)morpholine-4-carboxamide]
5.27 | 6.67 | C[C@@H]1CN(C(=O)N(Cc2ccc(C(=O)NO)cc2)c2cccc(C(F)(F)F)c2)C[C@H](C)N1CC(F)(F)C(F)(F)F [Compound 803, (3S,5R)—N-(4-(hydroxycarbamoyl)benzyl)-3,5-dimethyl-4-(2,2,3,3,3-pentafluoropropyl)-N-(3-(trifluoromethyl)phenyl)piperazine-1-carboxamide]
6.55 | 8.15 | CCN1CCN(C(=O)N(Cc2ccc(C(=O)NO)cc2)c2ccc(F)c(Cl)c2)CC1 [Compound 479, N-(3-chloro-4-fluorophenyl)-4-ethyl-N-(4-(hydroxycarbamoyl)benzyl)piperazine-1-carboxamide]
5.49 | 8.05 | CS(=O)(=O)N1CCC(c2cccc(N(Cc3ccc(C(=O)NO)cc3)C(=O)N3CCOCC3)c2)CC1 [Compound 491, N-(4-(hydroxycarbamoyl)benzyl)-N-(3-(1-(methylsulfonyl)piperidin-4-yl)phenyl)morpholine-4-carboxamide]
6.00 | 7.85 | O=C(NO)c1ccc(CN(C(=O)N2CCOCC2)c2cccc(-c3cncnc3)c2)cc1 [Compound 397, N-(4-(hydroxycarbamoyl)benzyl)-N-(3-(pyrimidin-5-yl)phenyl)morpholine-4-carboxamide]
6.72 | 8.05 | CN1CCN(C(=O)N(Cc2ccc(C(=O)NO)cc2)c2ccc(F)c(Cl)c2)CC1 [Compound 478, N-(3-chloro-4-fluorophenyl)-N-(4-(hydroxycarbamoyl)benzyl)-4-methylpiperazine-1-carboxamide]
5.19 | 8.30 | CC(=O)N1CCCN(C(=O)N(Cc2ccc(C(=O)NO)cc2)c2ccccn2)CC1 [Compound 450, 4-acetyl-N-(4-(hydroxycarbamoyl)benzyl)-N-(pyridin-2-yl)-1,4-diazepane-1-carboxamide]
6.26 | 8.85 | O=C(NO)c1ccc(CN(C(=O)N2CCN(Cc3ccccc3)CC2)c2cccc(C(F)(F)F)c2)cc1 [Compound 683, 4-benzyl-N-(4-(hydroxycarbamoyl)benzyl)-N-(3-(trifluoromethyl)phenyl)piperazine-1-carboxamide]
5.39 | 8.22 | CC1CN(C(=O)N(Cc2ccc(C(=O)NO)cc2)c2cccc(C(F)(F)F)c2)CC(C)O1 (stereo not shown) [Compound 386, N-(4-(hydroxycarbamoyl)benzyl)-2,6-dimethyl-N-(3-(trifluoromethyl)phenyl)morpholine-4-carboxamide]
6.62 | 9.00 | O=C(NO)c1ccc(CN(C(=O)N2CCN(CCO)CC2)c2cccc(-c3ccc4c(c3)OCO4)c2)cc1 [Compound 467, N-(3-(benzo[d][1,3]dioxol-5-yl)phenyl)-N-(4-(hydroxycarbamoyl)benzyl)-4-(2-hydroxyethyl)piperazine-1-carboxamide]
5.76 | 7.61 | CC1CN(C(=O)N(Cc2ccc(C(=O)NO)cc2)c2cccc(C(F)(F)F)n2)CC(C)O1 (stereo not shown) [Compound 827, N-(4-(hydroxycarbamoyl)benzyl)-2,6-dimethyl-N-(6-(trifluoromethyl)pyridin-2-yl)morpholine-4-carboxamide]
6.24 | 8.70 | CC(=O)N1CCN(C(=O)N(Cc2ccc(C(=O)NO)cc2)c2cccc(F)c2)CC1 [Compound 529, 4-acetyl-N-(3-fluorophenyl)-N-(4-(hydroxycarbamoyl)benzyl)piperazine-1-carboxamide]
6.75 | 7.96 | O=C(NO)c1ccc(CN(C(=O)N2CCC[C@@H]2CO)c2ccc(C(F)(F)F)cc2)cc1 [Compound 522, (R)—N-(4-(hydroxycarbamoyl)benzyl)-2-(hydroxymethyl)-N-(4-(trifluoromethyl)phenyl)pyrrolidine-1-carboxamide]
6.03 | 8.70 | O=C(NO)c1ccc(CN(C(=O)N2CCC[C@@H]2CO)c2cccc(C(F)(F)F)c2)cc1 [Compound 497, (R)—N-(4-(hydroxycarbamoyl)benzyl)-2-(hydroxymethyl)-N-(3-(trifluoromethyl)phenyl)pyrrolidine-1-carboxamide]
6.20 | 9.00 | O=C(NO)c1ccc(CN(C(=O)N2CCN(C(=O)C3CC3)CC2)c2cccc(-c3ccc4c(c3)OCO4)c2)cc1 [Compound 470, N-(3-(benzo[d][1,3]dioxol-5-yl)phenyl)-4-(cyclopropanecarbonyl)-N-(4-(hydroxycarbamoyl)benzyl)piperazine-1-carboxamide]
6.30 | 7.68 | O=C(NO)c1ccc(CN(C(=O)N2CCN(c3ccncc3)CC2)c2ccc(C(F)(F)F)cc2)cc1 [Compound 544, N-(4-(hydroxycarbamoyl)benzyl)-4-(pyridin-4-yl)-N-(4-(trifluoromethyl)phenyl)piperazine-1-carboxamide]
6.07 | 9.40 | O=C(NO)c1ccc(CN(C(=O)N2CCOCC2)c2ccc(F)cc2F)cc1 [Compound 413, N-(2,4-difluorophenyl)-N-(4-(hydroxycarbamoyl)benzyl)morpholine-4-carboxamide]
5.13 | 7.85 | CC1CCN(C(=O)N(Cc2ccc(C(=O)NO)cc2)c2cccc(C(F)(F)F)c2)CC1 [Compound 459, N-(4-(hydroxycarbamoyl)benzyl)-4-methyl-N-(3-(trifluoromethyl)phenyl)piperidine-1-carboxamide]
6.39 | 8.52 | CN1CCN(C(=O)N(Cc2ccc(C(=O)NO)cc2)c2cccc(-c3ccc4c(c3)OCO4)c2)CC1 [Compound 466, N-(3-(benzo[d][1,3]dioxol-5-yl)phenyl)-N-(4-(hydroxycarbamoyl)benzyl)-4-methylpiperazine-1-carboxamide]
5.95 | 8.30 | CN1CCN(C(=O)N(Cc2ccc(C(=O)NO)cc2)c2ccc(Cl)c(C(F)(F)F)c2)CC1 [Compound 393, N-(4-chloro-3-(trifluoromethyl)phenyl)-N-(4-(hydroxycarbamoyl)benzyl)-4-methylpiperazine-1-carboxamide]
6.18 | 7.82 | O=C(NO)c1ccc(CN(C(=O)N2CCC(O)CC2)c2cccc(-c3ccc4c(c3)OCO4)c2)c(F)c1 [Compound 513, N-(3-(benzo[d][1,3]dioxol-5-yl)phenyl)-N-(2-fluoro-4-(hydroxycarbamoyl)benzyl)-4-hydroxypiperidine-1-carboxamide]
